Measurements reported in US20090068286A1, “METHOD OF TREATING CANCER BY ADMINISTRATION OF 5-SUBSTITUTED NUCLEOSIDES” (RESprotect, GmbH, priority 2007, published 2009).
Values joined by “and” are separate entries in the source; they are usually repeats but may differ in a detail not shown here. Equal entries are not always repeated. Where two headings read alike, the source gives them in different places.

Test: Plasma concentrations of BVDU, BVU and GEM in patients of the dose finding study (HPLC)
Assay type: in vivo, human
Settings: for concentration at 0 hr / concentration at 0 h / concentration at 0.5 hr / concentration at 1 hr / concentration at 1.5 hr / concentration at 2 hr / concentration at 3 hr / concentration at 4 hr / concentration at 4 h / concentration at 5 hr / concentration at 9 hr / concentration at 0.5 h / concentration at 1 h / concentration at 1.5 h / concentration at 2 h / concentration at 3 h / concentration at 5 h / concentration at 9 h: human, plasma, po; for concentration at 0 hr / concentration at 0 h / concentration at 0.5 hr / concentration at 1 hr / concentration at 1.5 hr / concentration at 2 hr / concentration at 3 hr / concentration at 4 hr / concentration at 4 h / concentration at 5 hr / concentration at 9 hr / concentration at 0.5 h / concentration at 1 h / concentration at 1.5 h / concentration at 2 h / concentration at 3 h / concentration at 5 h / concentration at 9 h / BVDU plasma concentration, patient: day 1, oral BVDU
Procedure: Dose finding study: 22 Patients with advanced pancreatic adenocarcinoma were eligible for treatment in this single arm study. The mean age was 60 years and 73% of patients were males. One patient without progressive disease was excluded from the study for withdrawal of consent after the first cycle. Of the 21 patients left, 15 were in stage IV and 6 in stage III. BVDU was administered in a combination with GEM. On day 1, on day 8 and on day 15 of each 28-day cycle, BVDU was given together with GEM. On days 2-4, on days 8-11, and on days 15-18 of a 28-day cycle, BVDU was given alone in the recovery phase.
The starting dose of BVDU was 4×125 mg/day (total dose of 6,000 mg per treatment cycle) together with a fixed dose of GEM (1,000 mg/M^2). Subsequent total doses of BVDU per cycle were 7,500 mg, 9,000 mg, 10,500 mg, and 12,000 mg again in four patients per cohort. Dosage levels were administered as follows: First dose level: The starting dose of BVDU was 4×125 mg daily given at approximately 08:00 a.m. (1×125 mg BVDU), 12:00 a.m. (1×125 mg BVDU), 04:00 p.m. (1×125 mg BVDU), and 08:00 p.m. (1×125 mg BVDU). These doses were administered on days 1 to 4, days 8 to 11 and days 15 to 18; Second dose level: 1×250 mg+3×125 mg daily; Third dose level. 2×250 mg+2×125 mg daily; Forth dose level: 3×250 mg+1×125 mg daily; and, Fifth dose level: 4×250 mg daily.
Approximately 1 hour after the 08:00 a.m. BVDU-administration on day 1, day 8 and day 15 of a cycle, the GEM infusion started and GEM was infused for 30 minutes.
Analysis of the concentrations of GEM and BVDU (BVDU) as well as analysis of the concentrations of BVU ((E)-5-(2-bromovinyl)uracil, degradation product of BVDU) in plasma samples: 0.5 ml of plasma spiked with about 0.5 μg of 4-Propyl-2-thiouracil (PTU) as internal standard was extracted with 2.5 ml of methanol-acetonitrile (v/v, 1:9) by vigorous mixing for about 1 min. After centrifugation the supernatant was transferred to a beaker and evaporated to dryness at 50° C. under a gentle stream of nitrogen. The residue was dissolved in 1 ml of the solution used as mobile phase by 10 min treatment in an ultrasonic bath. After centrifugation the clear supernatant was used for HPLC-analysis. The concentrations of GEM and BVDU were calculated using a calibration curve with the respective standard substances. The concentrations of BVU were calculated using the calibration curve of BVDU and the determined response factor. Limits of detection: BVDU 20 ng/ml plasma; GEM 30 ng/ml plasma. Limits of quantification: BVDU 60 ng/ml plasma; GEM 100 ng/ml plasma.
Pharmacokinetic Results BVDU: All measurements were performed within 9 hours. Therefore, only the first three intakes of BVDU-tablets were relevant in this context, and as consequence, in dose groups four and five the intake of tablets was identical. When the dose was doubled from 125 mg to 250 mg, the mean maximum BVDU concentration in plasma increased fivefold from 290 (±152) ng/ml to 1549 (±1058) ng/ml (FIG. 10).

[1] = both sexes, dose level 6000 mg, read-out: BVDU plasma concentration, Mean
[2] = both sexes, dose level 6000 mg, read-out: BVDU plasma concentration, Median
[3] = both sexes, dose level 7500 mg, read-out: BVDU plasma concentration, Mean
[4] = both sexes, dose level 10500 mg, read-out: BVDU plasma concentration, Mean
[5] = both sexes, dose level 10500 mg, read-out: BVDU plasma concentration, Median
[6] = both sexes, dose level 12000 mg, read-out: BVDU plasma concentration, Mean
[7] = both sexes, dose level 12000 mg, read-out: BVDU plasma concentration, Median
[8] = dose level 7500 mg, read-out: BVDU plasma concentration, Median
[9] = dose level 9000 mg, read-out: BVDU plasma concentration, Mean
[10] = dose level 9000 mg, read-out: BVDU plasma concentration, Median

## O=c1[nH]c(=O)n([C@H]2C[C@H](O)[C@@H](CO)O2)cc1/C=C/Br [BVDU, (E)-5-(2-bromovinyl)-2′-deoxyuridine]
BVDU dose 125 mg
  Mean maximum BVDU concentration in plasma: 290 (±152) ng/ml
BVDU dose 250 mg
  Mean maximum BVDU concentration in plasma: 1549 (±1058) ng/ml
[1]
  concentration at 0 hr: 0 ng/mL
  concentration at 0.5 hr: 213 ng/mL
  concentration at 1 hr: 177 ng/mL
  concentration at 2 hr: 231 ng/mL
  concentration at 3 hr: 175 ng/mL
  concentration at 5 hr: 300 ng/mL
  concentration at 9 hr: 391 ng/mL
[2]
  concentration at 0 hr: 0 ng/mL
  concentration at 0.5 hr: 213 ng/mL
  concentration at 1 hr: 109 ng/mL
  concentration at 2 hr: 207 ng/mL
  concentration at 3 hr: 133 ng/mL
  concentration at 5 hr: 334 ng/mL
  concentration at 9 hr: 403 ng/mL
Both sexes, dose level 6000 mg, read-out: BVDU plasma concentration, patient
  concentration at 0 h: 0 ng/mL
Both sexes, dose level 6000 mg, 1.5 hr, read-out: BVDU plasma concentration, Mean
  concentration at 1.5 hr: 250 ng/mL
Both sexes, dose level 6000 mg, 1.5 hr, read-out: BVDU plasma concentration, Median
  concentration at 1.5 hr: 226 ng/mL
Both sexes, dose level 6000 mg, 4.0 hr, read-out: BVDU plasma concentration, Mean
  concentration at 4 hr: 113 ng/mL
Both sexes, dose level 6000 mg, 4.0 hr, read-out: BVDU plasma concentration, Median
  concentration at 4 hr: 122 ng/mL
Both sexes, dose level 6000 mg, 4.0 hr, read-out: BVDU plasma concentration, patient
  concentration at 4 h: 126 ng/mL
[3]
  concentration at 0 hr: 0 ng/mL
  concentration at 0.5 hr: 1600 ng/mL
  concentration at 1 hr: 872 ng/mL
  concentration at 2 hr: 454 ng/mL
  concentration at 3 hr: 302 ng/mL
  concentration at 9 hr: 952 ng/mL
Both sexes, dose level 7500 mg, read-out: BVDU plasma concentration, patient
  concentration at 0 hr: 0 ng/mL
Both sexes, dose level 7500 mg, 1.5 hr, read-out: BVDU plasma concentration, Mean
  concentration at 1.5 hr: 555 ng/mL
Both sexes, dose level 7500 mg, 4.0 hr, read-out: BVDU plasma concentration, Mean
  concentration at 4 hr: 243 ng/mL
[4]
  concentration at 0 h: 0 ng/mL
  concentration at 0.5 h: 1110 ng/mL
  concentration at 1 h: 1010 ng/mL
  concentration at 2 h: 697 ng/mL
  concentration at 3 h: 453 ng/mL
  concentration at 5 h: 400 ng/mL
  concentration at 9 h: 2070 ng/mL
[5]
  concentration at 0 h: 0 ng/mL
  concentration at 0.5 h: 1150 ng/mL
  concentration at 1 h: 1010 ng/mL
  concentration at 2 h: 669 ng/mL
  concentration at 3 h: 279 ng/mL
  concentration at 5 h: 410 ng/mL
  concentration at 9 h: 1390 ng/mL
Both sexes, dose level 10500 mg, read-out: BVDU plasma concentration, patient
  concentration at 0 h: 0 ng/mL
Both sexes, dose level 10500 mg, 1.5 hr, read-out: BVDU plasma concentration, Mean
  concentration at 1.5 h: 636 ng/mL
Both sexes, dose level 10500 mg, 1.5 hr, read-out: BVDU plasma concentration, Median
  concentration at 1.5 h: 566 ng/mL
Both sexes, dose level 10500 mg, 4.0 hr, read-out: BVDU plasma concentration, Mean
  concentration at 4 h: 206 ng/mL
Both sexes, dose level 10500 mg, 4.0 hr, read-out: BVDU plasma concentration, Median
  concentration at 4 h: 212 ng/mL
[6]
  concentration at 0 h: 0 ng/mL
  concentration at 0.5 h: 1490 ng/mL
  concentration at 1 h: 1160 ng/mL
  concentration at 2 h: 904 ng/mL
  concentration at 3 h: 738 ng/mL
  concentration at 5 h: 2080 ng/mL
  concentration at 9 h: 2340 ng/mL
[7]
  concentration at 0 h: 0 ng/mL
  concentration at 0.5 h: 672 ng/mL
  concentration at 1 h: 1020 ng/mL
  concentration at 2 h: 561 ng/mL
  concentration at 3 h: 407 ng/mL
  concentration at 5 h: 1070 ng/mL
  concentration at 9 h: 1780 ng/mL
Both sexes, dose level 12000 mg, read-out: BVDU plasma concentration, patient
  concentration at 0 h: 0 ng/mL
Both sexes, dose level 12000 mg, 1.5 hr, read-out: BVDU plasma concentration, Mean
  concentration at 1.5 h: 1050 ng/mL
Both sexes, dose level 12000 mg, 1.5 hr, read-out: BVDU plasma concentration, Median
  concentration at 1.5 h: 844 ng/mL
Both sexes, dose level 12000 mg, 1.5 hr, read-out: BVDU plasma concentration, patient
  concentration at 1.5 h: 844 ng/mL
Both sexes, dose level 12000 mg, 4.0 hr, read-out: BVDU plasma concentration, Mean
  concentration at 4 h: 543 ng/mL
Both sexes, dose level 12000 mg, 4.0 hr, read-out: BVDU plasma concentration, Median
  concentration at 4 h: 440 ng/mL
Dose doubled from 125 mg to 250 mg
  Increase of mean maximum BVDU concentration in plasma: fivefold
Dose level 6000 mg, 4.0 hr
  BVDU plasma concentration, patient: 122 ng/mL and 90 ng/mL
Dose level 12000 mg, 1.5 hr
  BVDU plasma concentration, patient: 1524 ng/mL and 792 ng/mL
[8]
  concentration at 0 h: 0 ng/mL
  concentration at 0.5 h: 1130 ng/mL
  concentration at 1 h: 484 ng/mL
  concentration at 2 h: 403 ng/mL
  concentration at 3 h: 304 ng/mL
  concentration at 5 h: 776 ng/mL
  concentration at 9 h: 898 ng/mL
Dose level 7500 mg, 1.5 hr, read-out: BVDU plasma concentration, Median
  concentration at 1.5 h: 644 ng/mL
Dose level 7500 mg, 4.0 hr, read-out: BVDU plasma concentration, Median
  concentration at 4 h: 242 ng/mL
Dose level 7500 mg, read-out: BVDU plasma concentration, Mean
  concentration at 5 h: 641 ng/mL
[9]
  concentration at 0 h: 0 ng/mL
  concentration at 0.5 h: 942 ng/mL
  concentration at 1 h: 784 ng/mL
  concentration at 2 h: 701 ng/mL
  concentration at 3 h: 464 ng/mL
  concentration at 5 h: 1300 ng/mL
  concentration at 9 h: 1510 ng/mL
[10]
  concentration at 0 h: 0 ng/mL
  concentration at 0.5 h: 979 ng/mL
  concentration at 1 h: 781 ng/mL
  concentration at 2 h: 705 ng/mL
  concentration at 3 h: 441 ng/mL
  concentration at 5 h: 1020 ng/mL
  concentration at 9 h: 1630 ng/mL
Dose level 9000 mg, read-out: BVDU plasma concentration, patient
  concentration at 0 h: 0 ng/mL
Dose level 9000 mg, 1.5 hr, read-out: BVDU plasma concentration, Mean
  concentration at 1.5 h: 697 ng/mL
Dose level 9000 mg, 1.5 hr, read-out: BVDU plasma concentration, Median
  concentration at 1.5 h: 530 ng/mL
Dose level 9000 mg, 4.0 hr, read-out: BVDU plasma concentration, Mean
  concentration at 4 h: 420 ng/mL
Dose level 9000 mg, 4.0 hr, read-out: BVDU plasma concentration, Median
  concentration at 4 h: 378 ng/mL
